Patent US10870875B2, “Metalloprotein compositions” (Commonwealth Scientific and Industrial Research Organisation, priority 2014, dated 2020)

Key:
[1] = biological target: T1, recombinant honeybee (Apis mellifera) silk protein AmelF3, unmodified, SEQ ID NO: 39 (Apis mellifera, UniProt A0ACM8QI31); assay: Binding of macrocycles/chelates to AmelF3 sponges or films (colour retained after washing, UV/Vis); conditions: sponge or film, qualitative
T1 construct: sponges and films
Method: Full length, recombinant honeybee silk proteins (AmelF3) without affinity purification tags, were produced by fermentation in Escherichia coli as described in Weisman et al. (2010). Full length, recombinant Weaver Ant/Green Ant (Oecophylla smaragdina) silk proteins (GA1, GA2, GA3, GA4) without affinity purification tags, were produced by fermentation in Escherichia coli following the same procedures as outlined in Weisman et al. (2010).
AmelF3 sponges were prepared as described in example 1. […] The colour change observed with honeybee silk indicates a change in the coordination of the iron metal centre within the haem group, producing a material with a similar coordination to red haemoglobin. The colour was not removed by extensive washing with 70% methanol, 0.1M HCl or 0.1M NaCl.
An embodiment of the composition of the present invention was formed by co-drying a solution of AmelF3 and haem b. Briefly, 2 mg haem b and 20 mg AmelF3 silk sponge was dissolved in 1 mL of HFIP overnight at room temperature. The solution was aliquoted into either a cuvette or 24-well plate and dried at room temperature. The dried film was soaked overnight in 70% methanol to make the film insoluble in water.
Alternatively, haem b was ‘leached’ into a pre-formed film. The AmelF3 material was formed as described in example 1. The silk material was soaked in a solution of haem b (0.5 mg/mL; haem b in excess) in 70% methanol solution for between 1 and 48 hours followed by washing with 70% methanol to remove any unbound haem b and dried at room temperature.
AmelF3 films with different ratios of haem b to AmelF3 were prepared by co-drying haem and AmelF3 HFIP solutions. At low haem loadings (haem:protein molar ratios of 1:1 and 1:2), a sharp Soret peak at 404 nm was observed, indicative of all the haem being coordinated (FIG. 3). As the concentration of haem b relative to the protein was increased, the Soret peak broadened and shifted to lower wavelengths indicating an increase in the amount of uncoordinated haem (FIG. 3).
The ability of sponges generated from recombinant AmelF3 to bind a range of macrocyles was tested by adding a solution of the macrocmacrocycle containing an excess of the macrocycle to be tested to the AmelF3 sponge and observing the colour of the sponge and whether the sponge retained colour after washing. The strength of macrocycle binding was assessed qualitatively by assessing the intensity of the colour retained by the sponge after washing. Strong binding to the sponge refers to the finding that the macrocycle cannot be washed out with aqueous methanol, organic solvents, 0.1 M HCl or 0.1 M NaOH.
Films generated from recombinant honeybee silk protein AmelF3 containing dicyanocobyrinic acid heptamethyl ester were prepared as described in example 3. UV/Vis spectrum were recorded for a film generated from recombinant AmelF3 containing dicyanocobyrinic acid heptamethyl ester and a solution of dicyanocobyrinic acid heptamethyl ester without AmelF3 (FIG. 8).

[2] = biological target: T2, Apis mellifera AmelF3 (SEQ ID NO: 39) variant Tyr76Ala (Apis mellifera, UniProt A0ACM8QI31, Y95A); assay: Binding of chelates to AmelF3 Tyr76Ala sponges or films; conditions: sponge washed with aqueous methanol, qualitative
T2 construct: sponge or film
T2 sequence (A0ACM8QI31 entry or part of it Y95A): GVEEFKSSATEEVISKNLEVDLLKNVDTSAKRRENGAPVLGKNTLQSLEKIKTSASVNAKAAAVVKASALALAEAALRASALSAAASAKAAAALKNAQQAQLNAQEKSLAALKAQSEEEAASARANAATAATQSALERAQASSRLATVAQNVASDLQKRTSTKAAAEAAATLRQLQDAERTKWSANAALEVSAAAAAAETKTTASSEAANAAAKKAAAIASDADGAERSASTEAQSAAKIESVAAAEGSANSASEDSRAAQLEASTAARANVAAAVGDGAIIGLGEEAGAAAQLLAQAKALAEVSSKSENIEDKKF
Method: Site directed mutagenesis of honeybee silk proteins was carried using methods known to the person skilled in the art. For example, to generate AmelF3 Tyr76Ala, the forward primer 5′-[…]-3′ (SEQ ID NO: 80) with the corresponding reverse primer was employed and site directed mutagenesis was carried out using Pfx 50 DNA polymerase from Invitrogen following the Pfx50 manufactures instructions. All AmelF3 mutants were expressed and purified using a similar procedure as the unmodified AmelF3 silk protein. To generate AmelF3 Tyr76His, the forward primer 5′-[…]-3′ (SEQ ID NO: 81) with the corresponding reverse primer was employed. To generate AmelF3 Ala97His, the forward primer 5′-[…]-3′ (SEQ ID NO: 82) was used.
To test whether Tyr76 was indeed the coordinating ligand, the present inventors replaced Tyr76 with an alanine using site directed mutagenesis of the AmelF3 silk gene.

T1 sequence (A0ACM8QI31 entry or part of it): as the sequence (A0ACM8QI31 entry or part of it Y95A) above, with A76Y counted along it

For `C=CC1=C(C)c2cc3[nH]c(cc4nc(cc5[nH]c(cc1n2)c(C)c5CCC(=O)O)C(CCC(=O)O)=C4C)c(C)c3C=C.[Fe]` [haem b], the “binding to silk protein (in words)” value [1] was “strongly bound” and the “binding to silk protein (in words)” value [2] was “bound to the silk protein, the metal ion was not coordinated to the polypeptide”.
